# Source: patent US9919001B2, “Drug carrier having L-DNA nanocage structure” (Korea Institute of Science and Technology, priority 2013, dated 2018)
# System: MCF-7/ADR cells
# Experiment: MTT cell viability assay (small molecule drug delivery)
# Format: cell-based
# Conditions: average of triplicate
# Description: For DOX intercalation into the Cy5-labeled Td, DOX (1 mM) was mixed with the fluorescent DNA tetrahedron (10 μM) for 1 h and then run through NAP10 (G25-DNA grade column, GE Healthcare, USA) to remove the free DOX remaining in solution. The number of intercalated DOX molecules per DNA tetrahedron was calculated using the extinction coefficient of Cy5 at 633 nm (ϵ=230400) and that of DOX at 480 nm (ϵ=10410), respectively.
# Drug-sensitive MCF-7 cells and drug-resistant MCF-7/ADR cells were used for cell viability assays. Cytotoxicity of Td was estimated using an MTT assay. Briefly, 8×10^3 mammalian cells were seeded with media (100 μL) in 96-well plates and cultured overnight to reach ˜80% confluency. The cells were then incubated in the fresh media containing Td at 37° C. for 6 h in the CO2 chamber. […] Then, thiazolyl blue tetrazolium bromide (MTT, TACS, Germany) solution (10 μL) was added to each well, followed by 4 h incubation at 37° C. Next, cells were lysed with 200 μL of dimethyl sulfoxide (DMSO, Sigma-Aldrich, USA). After overnight incubation at room temperature, the absorbance was measured at 580 nm using a microplate reader (SpectraMaxPlus™, Molecular Devices, USA).
compound,measurement,setting,value
"COc1cccc2c1C(=O)c1c(O)c3c(c(O)c1C2=O)C[C@@](O)(C(=O)CO)C[C@@H]3O[C@H]1C[C@H](N)[C@H](O)[C@H](C)O1 [Free-DOX, doxorubicin]",Cell viability assay (%),24 h,98.9%
same,Cell viability assay (%),48 h,93.6%
same,Cell viability assay (%),72 h,89.2%
